According to US20260000078A1, “ANTI-MICROBIAL SYSTEM” (The Procter & Gamble Company, priority 2024, published 2026):
≈ marks a conversion by molar mass, not a printed value.

Experiments:
Assay type in all cases: cell-based
[1] = test system: Escherichia coli ATCC 8739; assay: Minimal Kill Concentration (MKC) assay, 96 well plate; conditions: 20-minute contact time
Protocol: (§1) The MKC assay is a 96 well plate method to determine the minimum concentration of a test material or composition needed to kill Gram-negative and Gram-positive bacteria (Escherichia coli ATCC 8739 and Staphylococcus aureus ATCC 6538, respectively). The bacterial suspensions are prepared from 10× freezer stocks with 15% glycerol. The freezer stocks are centrifuged at 13,000×g (Eppendorf Centrifuge […] No. 5417 05483) for 1 minute. The supernatant is removed, and the cell pellet is resuspended in 1 mL saline (Sodium chloride solution 0.9%, Cytiva REF: Z1376), and then transferred to 9 mL saline. The target cfu/ml is 10^8, which is confirmed via serial diluting and plating on TSA plates (Tryptic Soy Agar-Sigma-Aldrich Cat #22091). Then 50 μL of bacteria is added to each well of a 96 well 0.5 mL V-Bottom plate (Greiner bio-one REF: 786201) to make a bacteria plate, one separate plate for each bacterium. The dilutions of the test compounds are prepared in a separate 96 well plate. The test compounds are tested at six dilutions in duplicates or with no replication diluted across the entire plate. The test compounds are prepared in Dimethyl Sulfoxide (Sigma Aldrich GR ACS Cat. No: MX1458-6) or sterile water at 2× the intended test concentration, and then serially diluted in the appropriate vehicle 1:2 across the plate using a multichannel. 50 μL from the test compound plate is added to each well in the bacteria plate all at once using an Integra VIAFLOW 96 channel pipette (Model: VIAFLO 96) and the Integra 300 μL Head (Part No. 6103). With addition of the 2× compounds bacteria plate, the compounds are diluted to a 1× test concentration. The addition of the test compounds to the bacteria wells starts the 20-minute contact time. The plates are mixed well using a Mix-Mate (Eppendorf SE). After 20 minutes, 1 μL from each well of the bacteria plate is transferred to premade Tryptic Soy Agar (TSA) plates (OmniTray Cell Culture Treated w/Lid Sterile, Cat. No: 165218) for spot plating using the Integra VIAFLOW 96 with the Integra 12.5 μL head (Part No. 6101). Then 4 μL from each well of the bacteria/compound plate is transferred to another 96 well plate containing 36 μL of neutralizer broth Modified Letheen Broth (BD Difco Letheen Broth, Modified REF 263010). The contact time is stopped at 20 minutes once the compound plate is neutralized. The plates are mixed well using a Mix-Mate and then 1 μL of the neutralizer+sample mix is transferred to a TSA OmniTray plate using the Integra VIAFLOW and Integra 12.5 μL head. The TSA spot plates are then incubated overnight for 20 hours at 37° C. in an Incubator. This process is done for both bacteria species. After overnight incubation, the plates are removed from the incubator and the results recorded by observing which dilutions had bacterial kill/growth. The last dilution that had kill for both replicates is recorded as the MKC. A positive control of Benzalkonium chloride (Sigma Aldrich Cat. No.: 12060-5G) and vehicle controls are always included in the test.

[2] = test system: Staphylococcus aureus ATCC 6538; assay: as above; conditions: 20-minute contact time
Protocol: as §1

[3] = test system: Staphylococcus aureus ATCC #6538; assay: Minimum Inhibitory Concentration (MIC) assay with Minimum Biocidal Concentration (MBC); conditions: solvent DMSO; for MIC / MBC: Staphylococcus aureus, ATCC6538; for MIC: 24±2 hrs at 35° C., OD<50% of growth control, read-out: S. aureus MIC (ppm); for MBC: read-out: S. aureus MBC (ppm)
Protocol: The Minimum Inhibitory Concentration (MIC) assay is a 96-well high throughput method that determines the minimum concentration of an active required to inhibit the growth of microorganisms. Compounds are evaluated against the following microorganisms: Staphylococcus aureus ATCC #6538 (American Type Culture Collection, Manassas, Virginia, USA). To prepare solutions, the bacteria are streaked on Tryptic Soy Agar (TSA, Becton Dickinson DIFCO™ Tryptic Soy Agar, Franklin Lakes, NJ, USA) and incubated at 30-35° C. for 18-24 hrs. Confluent growth is transferred to saline (0.85% NaCl and turbidometrically adjusted to a target concentration of 10^7-10^8 CFU/ml. This inoculum solution is further diluted 1:1000 in Tryptic Soy Broth (TSB, Becton Dickinson, Franklin Lakes, NJ, USA) for assay use. Two-fold serial dilutions are prepared in Dimethylsulfoxide (DMSO, Thermo Scientific Pierce DMSO, Sequencing Grade) or sterile water for each test sample. In a sterile 96-well plate, each dilution is further diluted in broth inoculum such that each well contained 5% dilution and 95% broth inoculum. Bacteria and yeast plates were incubated on an orbital shaker (Heidolph Titramax 1000 Vibrating Platform Shaker, 200-300 rpm) for 24±2 hrs at 35° C. After incubation, the optical density (OD) of each well is measured in a spectrophotometer (Victor Nivo Multimode Plate Reader) at 600 nm. […] The MBC was determined as the most dilute concentration with no visible growth.

[4] = most dilute concentration with no visible growth on neutralizing agar

Compound	MKC (ppm) E. coli ([1]; solvent water)	MKC (ppm) S. aureus ([2]; solvent water)	S. aureus MBC (ppm) [3, 4]	MIC [3]	MBC [3, 4]	MKC (ppm) E. coli ([1]; solvent DMSO)	MKC (ppm) S. aureus ([2]; solvent DMSO)
CCCCCC(O)CC(=O)O (racemic) [(±)-3-Hydroxyoctanoic acid]	>641 ppm	>641 ppm					
CCCCCCCCCC(O)CC(=O)O (racemic) [DL-β-Hydroxylauric acid]	>865 ppm	>865 ppm	650 ppm				
CCCCCCCC(CC(=O)O)O[C@@H]1O[C@@H](C)[C@H](O)[C@@H](O)[C@H]1O (stereo partly drawn) [RhaC10, 3-(((2R,3R,4R,5R,6S)-3,4,5-trihydroxy-6-methyltetrahydro-2H-pyran-2-yl)oxy)decanoic acid]	>1338 ppm	>1338 ppm		> 10000 µg/mL	> 10000 µg/mL		
CCCCCCCCCCCCCC(O)CC(=O)O (racemic) [DL-β-Hydroxypalmitic acid]						136 ppm	>1090 ppm
CCCCCCCCCCCC(CC(=O)O)O[C@@H]1O[C@@H](C)[C@H](O)[C@@H](O)[C@H]1O (stereo partly drawn) [RhaC14, 3-(((2R,3R,4R,5R,6S)-3,4,5-trihydroxy-6-methyltetrahydro-2H-pyran-2-yl)oxy)tetradecanoic acid]				625 µg/mL (≈ 1.6 mM)	> 10000 µg/mL	781 ppm	781 ppm
CCCCCCCC(O)CC(=O)O (racemic) [(±)-3-Hydroxydecanoic acid]	753 ppm	753 ppm			> 1130 µg/mL		
CCCCCCCCCCCC(O)CC(=O)O (racemic) [DL-β-Hydroxymyristic acid]						122 ppm	244 ppm
CCCCCCCCC[C@@H](O)CC(=O)O [(3R)-3-hydroxydodecanoic acid]	>865 ppm	865 ppm					
CCCCCC(CC(=O)O)O[C@@H]1O[C@@H](C)[C@H](O)[C@@H](O)[C@H]1O (stereo partly drawn) [RhaC8, 3-(((2R,3R,4R,5R,6S)-3,4,5-trihydroxy-6-methyltetrahydro-2H-pyran-2-yl)oxy)octanoic acid]	>1225 ppm	>1225 ppm		10000 µg/mL (≈ 32.6 mM)	> 10000 µg/mL		
CCCCCCCCCC(CC(=O)O)O[C@@H]1O[C@@H](C)[C@H](O)[C@@H](O)[C@H]1O (stereo partly drawn) [RhaC12, 3-(((2R,3R,4R,5R,6S)-3,4,5-trihydroxy-6-methyltetrahydro-2H-pyran-2-yl)oxy)dodecanoic acid]	>1450 ppm	725 ppm		1250 µg/mL (≈ 3.45 mM)	> 10000 µg/mL		
